Results: patent publication US7074598B2, “Detection of vancomycin-resistant enterococcus spp” (Mayo Foundation for Medical Education and Research, priority 2002, dated 2006)

Key:
[1] = system: vanB strains of vancomycin-resistant enterococci; conditions: vanB phenotypes (vanB, vanB-2/3); cited from earlier work
[2] = system: vanC phenotype of vancomycin-resistant enterococci; conditions: cited from earlier work
[3] = system: vanA strains of vancomycin-resistant enterococci; conditions: cited from earlier work; for glycopeptide resistance phenotype: vanA phenotype
Enterococcus = assay: culture and susceptibility results of anal swab specimens (VRE screen media); type: cell-based
Method: An additional 56 specimens obtained from anal swabs were analyzed using the LIGHTCYCLER™ assay and were compared to a culture method using a VRE screen media. The anal swabs were prepared for amplification as described above. The LIGHTCYCLER™ assay detected more positive specimens than did culture, and is therefore more sensitive than culture. A high rate of false negative results from rectal swab culture has been previously confirmed in the literature (Clin. Infect. Dis., 2002, 34:167–172).

[4] = system: Enterococcus isolates from anal swabs; assay: MIC of isolates cultured from anal swabs of hospitalized patients; type: cell-based
Method: Four hundred ninety seven anal swabs collected from hospitalized patients were evaluated for the presence of vanA, vanB and vanB-2/3 genes by the LIGHTCYCLER™ vancomycin-resistant enterococci assay and by conventional culture methods. 482 of the 497 specimens were negative for the van genes and 12 were positive (9 vanA; 0 vanB; 3 vanB-2/3) by the LIGHTCYCLER™ vancomycin-resistant enterococci assay and the conventional culture screen using an 8 μg/ml Enterococcosel plate. […] The MIC values for all of the other isolates were susceptible to vancomycin at ≦8 μg/ml. An additional 21 specimens (4 vanA; 5 vanB; 12 vanB-2/3) were positive by the LIGHTCYCLER™ vancomycin-resistant enterococci assay but were negative by culture. Three of these patient specimens were culture positive with a repeat swab collection. Six of the positive specimens were separate specimens from the same patients. Due to the large number of vanB genotypes missed by culture and picked up with the LIGHTCYCLER™ vancomycin-resistant enterococci assay, the concentration of vancomycin in the Enterococcesel plates was decreased to 6 μg/ml, which is the usual laboratory standard (Manual of Clinical Microbiology, 7th Ed., 1999).

[5] = system: clinical isolates of Enterococcus; assay: agar dilution antimicrobial susceptibility testing (MIC) of clinical isolates of Enterococcus; type: cell-based
Method: One hundred clinical isolates of Enterococcus (E. casseliflavus/flavescens [n=10], E. faecalis [n=34], E. faecium [n=43], E. avium [n=1], E. gallinarum [n=11], and E. raffinosus [n=1]) were grown on blood agar plates and evaluated for the presence of vanA, vanB, and vanB 2/3 genes using a rapid LIGHTCYCLER™ vancomycin-resistant enteroccoci assay. The LIGHTCYCLER™ vancomycin-resistant enteroccoci assay differentiates the three van genes based on the temperature range over which hybridization probes melt from the target DNA (e.g., as determined by a melting curve). […] The MIC values for all of the other isolates were susceptible to vancomycin at ≦8 μg/ml.

[6] = Enterococcus cultured from anal swab specimen #52 (LightCycler VanA)
[7] = Enterococcus cultured from anal swab specimen #235 (LightCycler VanA)
[8] = Enterococcus cultured from anal swab specimen #244 (LightCycler VanA)
[9] = Enterococcus cultured from anal swab specimen #279 (LightCycler VanB-2/3)
[10] = Enterococcus cultured from anal swab specimen #286 (LightCycler VanB-2/3 weak)
[11] = Enterococcus cultured from anal swab specimen #296 (LightCycler Negative)
[12] = Enterococcus cultured from anal swab specimen #304 (LightCycler Negative)
[13] = Enterococcus cultured from anal swab specimen #419 (LightCycler VanA)
[14] = Enterococcus cultured from anal swab specimen #425 (LightCycler Negative)

Molecule | glycopeptide resistance phenotype [1] | glycopeptide resistance phenotype [2] | glycopeptide resistance phenotype [3] | Susceptibility Results (Enterococcus; [6]) | Susceptibility Results (Enterococcus; [7]) | Susceptibility Results (Enterococcus; [8]) | Susceptibility Results (Enterococcus; [9]) | Susceptibility Results (Enterococcus; [10]) | Susceptibility Results (Enterococcus; [11]) | Susceptibility Results (Enterococcus; [12]) | Susceptibility Results (Enterococcus; [13]) | Susceptibility Results (Enterococcus; [14]) | MIC ([4]; all of the other isolates from anal swabs, susceptible) [µg/mL] | MIC ([4]; vanA and vanB positive isolates from anal swabs, all resistant) [µg/mL] | MIC ([5]; all of the other isolates (van gene negative), susceptible) [µg/mL] | MIC ([5]; vanA, vanB, and vanB-2/3 positive isolates (43 of 100 clinical isolates), all resistant) [µg/mL] | minimum inhibitory concentration (MIC) ([3]; vanA strains, typical level) [µg/mL]
teicoplanin | susceptible | susceptible | high levels of resistance | – | – | – | – | – | – | – | – | – | – | – | – | – | –
CC1(C)S[C@@H]2[C@H](NC(=O)[C@H](N)c3ccccc3)C(=O)N2[C@H]1C(=O)O [Amp, Ampicillan] | – | – | – | S | Amp, Van, Pen, Gent = R | R | R | Amp, Van, Pen, Gent = S | Amp, Van, Pen, Gent = S | S | R | S | – | – | – | – | –
CN[C@H](CC(C)C)C(=O)N[C@H]1C(=O)N[C@@H](CC(N)=O)C(=O)N[C@H]2C(=O)N[C@H]3C(=O)N[C@H](C(=O)N[C@H](C(=O)O)c4cc(O)cc(O)c4-c4cc3ccc4O)[C@H](O)c3ccc(c(Cl)c3)Oc3cc2cc(c3O[C@@H]2O[C@H](CO)[C@@H](O)[C@H](O)[C@H]2O[C@H]2C[C@](C)(N)[C@H](O)[C@H](C)O2)Oc2ccc(cc2Cl)[C@H]1O [vancomycin] | variable vancomycin-resistance | low levels of vancomycin-resistance | high levels of resistance | I | Amp, Van, Pen, Gent = R | R | S | Amp, Van, Pen, Gent = S | Amp, Van, Pen, Gent = S | I | R | I | ≤ 8 | ≥ 64 | ≤ 8 | ≥ 64 | > 64
Pennicillin | – | – | – | S | Amp, Van, Pen, Gent = R | R | R | Amp, Van, Pen, Gent = S | Amp, Van, Pen, Gent = S | S | R | S | – | – | – | – | –
Gentamycin | – | – | – | S | Amp, Van, Pen, Gent = R | S | S | Amp, Van, Pen, Gent = S | Amp, Van, Pen, Gent = S | S | I | S | – | – | – | – | –
